Experimental data: PubChem BioAssay AID258 (DTP/NCI, 2004)
Values joined by “and” are separate entries in the source; they are usually repeats but may differ in a detail not shown here. Equal values may be shown once. Toxic doses and inconclusive results are not listed.

System: CD2F1 mice, L1210 leukemia sc, survival T/C
Assay: NCI In Vivo Anticancer Drug Screen. Data for tumor model L1210 Leukemia (subcutaneous) in CD2F1 (CDF1) mice
Settings: endpoint: median survival time, higher = longer survival
Procedure, shortened: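 Transplantable tumor-bearing mice were treated with compound; survival or tumor size measured and expressed as treated-group value (T) divided by vehicle-treated control value (C).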

Q: Which T/C (dose: 14.0 mg/kg/injection, schedule: Q01DX Z (sc), vehicle: other) does the source give for Nc1ccc(C(=O)O)cn1 here?
A: 100 % of control

Q: And the T/C (dose: 23.0 mg/kg/injection, schedule: Q01DX Z (sc), vehicle: other)?
A: 100 % of control

Q: And the T/C (dose: 37.0 mg/kg/injection, schedule: Q01DX Z (sc), vehicle: other)?
A: 100 % of control

Q: What about the T/C (dose: 65.0 mg/kg/injection, schedule: Q01DX Z (sc), vehicle: other) of the same molecule?
A: 111 % of control

Q: What about the T/C (dose: 108.0 mg/kg/injection, schedule: Q01DX Z (sc), vehicle: other) of the same molecule?
A: 100 % of control

Q: What about the T/C (dose: 180.0 mg/kg/injection, schedule: Q01DX Z (sc), vehicle: other) of the same molecule?
A: 111 % of control

Q: Which T/C (dose: 50.0 mg/kg/injection, schedule: Q01DX Z (sc), vehicle: steriod suspending solution) does the source give for ONc1ncnc2nc[nH]c12 here?
A: 112 % of control

Q: And the T/C (dose: 100.0 mg/kg/injection, schedule: Q01DX Z (sc), vehicle: steriod suspending solution)?
A: 118 % of control

Q: What about the T/C (dose: 400.0 mg/kg/injection, schedule: Q01DX Z (sc), vehicle: steriod suspending solution) of the same molecule?
A: 168 % of control

Q: Which results are given for O=P1(N(CCCl)CCCl)NCCCO1 (stereo unspecified)?
A: T/C (dose: 6.25 mg/kg/injection, schedule: Q01DX009 (ip), vehicle: saline): 103 % of control; T/C (dose: 6.25 mg/kg/injection, schedule: Q01DX009 (sc), vehicle: saline): 107 % of control; T/C (dose: 12.5 mg/kg/injection, schedule: Q01DX009 (ip), vehicle: saline): 106 % of control and 107 % of control; T/C (dose: 12.5 mg/kg/injection, schedule: Q01DX009 (sc), vehicle: saline): 110 % of control; T/C (dose: 23.0 mg/kg/injection, schedule: Q01DX Z (sc), vehicle: saline): 210 % of control; T/C (dose: 25.0 mg/kg/injection, schedule: Q01DX009 (ip), vehicle: saline): 151 % of control; T/C (dose: 39.0 mg/kg/injection, schedule: Q01DX Z (sc), vehicle: saline): 221 % of control; T/C (dose: 39.0 mg/kg/injection, schedule: Q08DX003 (ip), vehicle: none): 118 % of control; T/C (dose: 39.0 mg/kg/injection, schedule: Q08DX003 (sc), vehicle: saline): 116 % of control; T/C (dose: 50.0 mg/kg/injection, schedule: Q01DX009 (ip), vehicle: saline): 165 % of control and 173 % of control and 177 % of control; T/C (dose: 50.0 mg/kg/injection, schedule: Q01DX009 (sc), vehicle: saline): 191 % of control; T/C (dose: 65.0 mg/kg/injection, schedule: Q01DX Z (sc), vehicle: saline): 236 % of control; T/C (dose: 65.0 mg/kg/injection, schedule: Q07DX003 (ip), vehicle: saline): 123 % of control; T/C (dose: 65.0 mg/kg/injection, schedule: Q08DX003 (ip), vehicle: none): 188 % of control; T/C (dose: 65.0 mg/kg/injection, schedule: Q08DX003 (sc), vehicle: saline): 172 % of control; T/C (dose: 65.0 mg/kg/injection, schedule: Q## X Z (sc), vehicle: saline): 215 % of control; T/C (dose: 100.0 mg/kg/injection, schedule: Q01DX009 (ip), vehicle: saline): 222 % of control and 247 % of control and 89 % of control; T/C (dose: 100.0 mg/kg/injection, schedule: Q01DX009 (sc), vehicle: saline): 259 % of control; T/C (dose: 108.0 mg/kg/injection, schedule: Q01DX001 (sc), vehicle: saline): 164 % of control and 166 % of control and 168 % of control; T/C (dose: 108.0 mg/kg/injection, schedule: Q01DX Z (sc), vehicle: saline): 189 % of control; T/C (dose: 108.0 mg/kg/injection, schedule: Q07DX003 (ip), vehicle: saline): 183 % of control; T/C (dose: 108.0 mg/kg/injection, schedule: Q07DX003 (sc), vehicle: saline): 211 % of control and 217 % of control; T/C (dose: 108.0 mg/kg/injection, schedule: Q07DX Z (sc), vehicle: saline): 226 % of control; T/C (dose: 108.0 mg/kg/injection, schedule: Q08DX003 (ip), vehicle: none): 241 % of control; T/C (dose: 108.0 mg/kg/injection, schedule: Q08DX003 (sc), vehicle: saline): 227 % of control; T/C (dose: 108.0 mg/kg/injection, schedule: Q## X Z (sc), vehicle: saline): 231 % of control; T/C (dose: 180.0 mg/kg/injection, schedule: Q01DX001 (sc), vehicle: saline): 197 % of control and 200 % of control (2×); T/C (dose: 180.0 mg/kg/injection, schedule: Q01DX Z (sc), vehicle: saline): 152 % of control; T/C (dose: 180.0 mg/kg/injection, schedule: Q07DX003 (ip), vehicle: saline): 274 % of control; T/C (dose: 180.0 mg/kg/injection, schedule: Q07DX003 (sc), vehicle: saline): 355 % of control and 373 % of control; T/C (dose: 180.0 mg/kg/injection, schedule: Q07DX Z (sc), vehicle: saline): 284 % of control; T/C (dose: 180.0 mg/kg/injection, schedule: Q08DX003 (ip), vehicle: none): 288 % of control; T/C (dose: 180.0 mg/kg/injection, schedule: Q08DX003 (sc), vehicle: saline): 283 % of control; T/C (dose: 180.0 mg/kg/injection, schedule: Q## X Z (sc), vehicle: saline): 263 % of control; T/C (dose: 300.0 mg/kg/injection, schedule: Q01DX001 (sc), vehicle: saline): 242 % of control and 244 % of control and 252 % of control; T/C (dose: 300.0 mg/kg/injection, schedule: Q07DX003 (ip), vehicle: saline): 274 % of control; T/C (dose: 300.0 mg/kg/injection, schedule: Q07DX003 (sc), vehicle: saline): 283 % of control and 296 % of control; T/C (dose: 300.0 mg/kg/injection, schedule: Q07DX Z (sc), vehicle: saline): 231 % of control; T/C (dose: 300.0 mg/kg/injection, schedule: Q08DX003 (ip), vehicle: none): 222 % of control; T/C (dose: 300.0 mg/kg/injection, schedule: Q08DX003 (sc), vehicle: saline): 205 % of control; T/C (dose: 500.0 mg/kg/injection, schedule: Q01DX001 (sc), vehicle: saline): 120 % of control and 221 % of control; T/C (dose: 500.0 mg/kg/injection, schedule: Q## X Z (sc), vehicle: saline): 152 % of control; T/C (dose: 833.0 mg/kg/injection, schedule: Q01DX001 (sc), vehicle: saline): 210 % of control; T/C (dose: 833.0 mg/kg/injection, schedule: Q07DX Z (sc), vehicle: saline): 157 % of control

Q: What does the source list for N#CC(c1ccccc1)c1cccc2ccccc12 (stereo unspecified)?
A: T/C (dose: 23.0 mg/kg/injection, schedule: Q01DX Z (sc), vehicle: methylcellulose (MC)): 109 % of control; T/C (dose: 39.0 mg/kg/injection, schedule: Q01DX Z (sc), vehicle: methylcellulose (MC)): 119 % of control; T/C (dose: 65.0 mg/kg/injection, schedule: Q01DX Z (sc), vehicle: methylcellulose (MC)): 152 % of control

Q: CN(C)CCN1C(=O)c2cccc3cc(N)cc(c23)C1=O was tested. Which T/C (dose: 5.0 mg/kg/injection, schedule: Q01DX009 (ip), vehicle: acid diluted with saline) did it give?
A: 102 % of control and 105 % of control and 118 % of control

Q: And the T/C (dose: 7.0 mg/kg/injection, schedule: Q01DX009 (ip), vehicle: acid diluted with saline)?
A: 103 % of control and 115 % of control and 121 % of control

Q: What about the T/C (dose: 10.0 mg/kg/injection, schedule: Q01DX009 (ip), vehicle: acid diluted with saline) of the same molecule?
A: 112 % of control

Q: And the T/C (dose: 16.0 mg/kg/injection, schedule: Q01DX009 (ip), vehicle: acid diluted with saline)?
A: 150 % of control and 173 % of control

Q: What about the T/C (dose: 24.0 mg/kg/injection, schedule: Q01DX009 (ip), vehicle: acid diluted with saline) of the same molecule?
A: 116 % of control
